Patent publication US4276298A, “2-Aryl-1,2-benzisothiazolinone-1,1-dioxides and their use as selective protease inhibitors” (Merck & Co., Inc., priority 1979, dated 1981)
pIC50: −log10 of the molar value. Read-outs that look alike come from different tables or passages of the source.

Legend:
Human PMN Elastase = target: T1, Human PMN Elastase (Homo sapiens, UniProt P08246); test: Human PMN elastase inhibition (Boc-AAPAN hydrolysis, 410 mμ); format: biochemical; conditions: 0.2 mM Boc-AAPAN, pH 7.5, crude human PMN extract; read-out: ID50 Human PMN Elastase (converted)
T1 construct: Crude extract of human polymorphonuclear leukocytes (PMN) containing elastase activity; from tissue; host or cells: human polymorphonuclear leukocytes (crude extract)
T1 sequence (P08246 30-267): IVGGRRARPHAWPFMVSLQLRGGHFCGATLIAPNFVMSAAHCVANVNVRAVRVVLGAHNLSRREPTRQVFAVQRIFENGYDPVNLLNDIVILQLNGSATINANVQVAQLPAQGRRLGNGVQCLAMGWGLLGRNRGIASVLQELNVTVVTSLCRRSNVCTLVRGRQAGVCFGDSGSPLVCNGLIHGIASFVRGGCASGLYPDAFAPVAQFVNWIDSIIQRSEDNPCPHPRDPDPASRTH
Experimental: N-tris (hydroxymethyl) methyl-2-aminoethane sulfonic acid
0.2 mM N-t-Box-Alanyl-Alanyl-Prolyl-Alanine-p-nitroanilide=Boc-AAPAN
To prepare substrate, the solid (m.w. 550) was first dissolved in 10.0 ml. DMSO. Buffer at pH 7.5 was then added to a final volume of 100 ml.
Crude extract of human polymorphonuclear leukocytes (PMN) containing elastase activity.
(§1) Inhibitors to be tested dissolved in DMSO just before use.
To 1.0 ml. of 0.2 mM Box-AAPAN in a cuvette, 0.01-0.1 ml. of DMSO with or without inhibitor was added. After mixing, a measurement was taken at 410 mμ to detect any spontaneous hydrolysis due to presence of test compound. 0.05 ml. of PMN extract was then added and the ΔOD/min at 410 mμ was measured and recorded. A Gilford 240 or Beckman DB-G spectrophotomer was used.
Results were obtained as % inhibition produced by test compound as represented by the % decrease in ΔOD/min. of a control. The ID50 was then derived from the % inhibition curve.
The elastase activity in the crude PMN extract may vary from one preparation to another. A control of each new batch is run and the volume added in the assay procedure is adjusted according to activity.

[1] = target: T2, Porcine Pancreatic Elastase (Sus scrofa, UniProt P00772); test: Porcine pancreatic elastase inhibition (Boc-AAPAN hydrolysis, 410 mμ); format: biochemical; conditions: 0.2 mM Boc-AAPAN, pH 7.5, purified PPE; read-out: ID50 Porcine Pancreatic Elastase (converted)
T2 construct: purchased Worthington

Chymotrypsin = target: T3, Chymotrypsin (Bos taurus, UniProt P00766); test: Chymotrypsin inhibition (Ac-AAPPhN hydrolysis, 410 mμ); format: biochemical, bovine; conditions: for IC50: 0.2 mM Ac-AAPPhN, pH 7.5, α-chymotrypsin, read-out: ID50 Chymotrypsin (converted)
T3 construct: purchased Worthington
Experimental: a-Chymotrypsin (Worthington, 3X crystallized, lyophilized) at 100 μg/ml in 0.001 M HCl (1 mg/ml by wt. diluted 1:10)
0.2 mM N-Acetyl-Alanyl-Alanyl-Prolyl-Phenylalanyl-p-nitroanilide=Ac-AAPPhN.To prepare substrate, the solid (M.W. 566) was first dissolved in 10.0 ml DMSO. Buffer at pH 7.5 was then added to a final volume of 100 ml.
as §1
To 1.0 ml of 0.2 mM Ac-AAPPhN in a cuvette, 0.01-0.05 ml of DMSO with or without inhibitor was added. After mixing, a measurement was taken at 410 mμ to detect any spontaneous hydrolysis due to the presence of test compound. 0.01 ml of α-chymotrypsin solution was then added and the ΔOD/min at […] was measured and recordeed. A Gilford 240 240 spectrophotometer was used.
Results were obtained as % inhibition produced by test compound as represented by the % decrease in ΔOD/min of a control. The ID50 was then derived from the % inhibition curve.

Trypsin = target: T4, Trypsin (Bos taurus, UniProt P00760); test: Trypsin inhibition (BAPA hydrolysis, 410 mμ); format: biochemical, bovine; conditions: for IC50: 1.0 mM BAPA, pH 7.5, read-out: ID50 Trypsin (converted)
T4 construct: purchased Worthington TRL
T4 sequence (P00760 24-246): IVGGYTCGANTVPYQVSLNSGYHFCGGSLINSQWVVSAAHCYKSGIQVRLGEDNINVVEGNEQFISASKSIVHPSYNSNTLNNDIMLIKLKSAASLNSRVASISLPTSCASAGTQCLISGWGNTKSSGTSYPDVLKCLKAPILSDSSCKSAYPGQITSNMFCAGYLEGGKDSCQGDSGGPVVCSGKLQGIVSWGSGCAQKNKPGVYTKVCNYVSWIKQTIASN

Human PMN Cathepsin G = target: T5, Human PMN Cathepsin G (Homo sapiens, UniProt P08311); test: Human PMN cathepsin G inhibition (BTNP hydrolysis, 347.5 mμ); format: biochemical; conditions: 0.2 mM BTNP, pH 6.5, purified human PMN extract; read-out: ID50 Human PMN Cathepsin G (converted)
T5 construct: Purified extract of human polymorphonuclear leukocytes (PMN) containing chymotrypsin-like activity; from tissue; host or cells: human polymorphonuclear leukocytes (purified extract)
T5 sequence (P08311 21-255): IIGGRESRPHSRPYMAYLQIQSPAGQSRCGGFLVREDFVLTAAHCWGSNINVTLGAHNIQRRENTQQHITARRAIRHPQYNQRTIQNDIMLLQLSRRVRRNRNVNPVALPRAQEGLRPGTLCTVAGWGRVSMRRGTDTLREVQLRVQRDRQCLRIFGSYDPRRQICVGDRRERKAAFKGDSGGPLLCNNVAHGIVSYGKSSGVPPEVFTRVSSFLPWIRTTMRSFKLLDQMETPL

Papain induced emphysema = conditions: hamster; cited from earlier work
papain = conditions: cited from earlier work
[2] = tested on: trypsin, chymotrypsin, plasmin, kallikrein, elastase, and thrombin; conditions: glycoprotein in human serum; cited from earlier work

T2 sequence (P00772 27-266): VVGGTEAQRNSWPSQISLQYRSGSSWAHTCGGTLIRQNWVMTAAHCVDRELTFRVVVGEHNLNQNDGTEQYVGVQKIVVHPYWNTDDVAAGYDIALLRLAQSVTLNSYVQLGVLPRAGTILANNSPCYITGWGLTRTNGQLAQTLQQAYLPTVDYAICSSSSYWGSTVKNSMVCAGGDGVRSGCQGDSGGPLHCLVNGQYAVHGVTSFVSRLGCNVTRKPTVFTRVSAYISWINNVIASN

| IC50 (Human PMN Elastase) [µM] | IC50 (Chymotrypsin) [µM] | IC50 (Trypsin) [µM] | IC50 (Human PMN Cathepsin G) [µM] | Compound | IC50 [1] [µM] | pIC50 (Chymotrypsin) | pIC50 (Trypsin) | inhibition of papain induced emphysema (Papain induced emphysema) | inhibition of papain (papain) | inhibitory spectrum [2] |
| --- | --- | --- | --- | --- | --- | --- | --- | --- | --- | --- |
| 0.361 | 0.0721 | 1.8 |  | O=C(c1ccco1)N1C(=O)c2ccccc2S1(=O)=O [reference compound] | 0.721 |  |  |  |  |  |
| 0.422 | 0.295 | 1.69 | 4.22 | C=CC(=O)N1C(=O)c2ccccc2S1(=O)=O [reference compound] | 0.843 |  |  |  |  |  |
| 10.5 | 59.6 |  |  | N#Cc1ccc(N2C(=O)c3ccccc3S2(=O)=O)nc1 |  |  |  |  |  |  |
| 4.85 | 3.23 | 162 | 162 | N#Cc1ccc(N2C(=O)c3ccccc3S2(=O)=O)c(C#N)c1 | 162 |  |  |  |  |  |
| 1.64 | 0.655 | 65.5 |  | O=C1c2ccccc2S(=O)(=O)N1c1ncccc1[N+](=O)[O-] | 65.5 |  |  |  |  |  |

The remaining lines, values behind:

| Compound | IC50 (Human PMN Elastase) [µM] | IC50 (Chymotrypsin) [µM] | IC50 (Trypsin) [µM] | IC50 (Human PMN Cathepsin G) [µM] | IC50 [1] [µM] | pIC50 (Chymotrypsin) | pIC50 (Trypsin) | inhibition of papain induced emphysema (Papain induced emphysema) | inhibition of papain (papain) | inhibitory spectrum [2] |
| --- | --- | --- | --- | --- | --- | --- | --- | --- | --- | --- |
| CCC(CC)C(=O)N1C(=O)c2ccccc2S1(=O)=O [reference compound] | 0.355 | 0.142 | 3.55 |  | 1.07 |  |  |  |  |  |
| O=C1c2ccccc2S(=O)(=O)N1c1c(F)c(F)c(F)c(F)c1F | 2.86 |  |  |  | 143 | 3.84 | 3.84 |  |  |  |
| O=C1c2ccccc2S(=O)(=O)N1c1ccc([N+](=O)[O-])cc1[N+](=O)[O-] | 2.86 |  |  |  | 143 | 5.84 | 3.84 |  |  |  |
| α1 -Antitrypsin: a glycoprotein in human serum |  |  |  |  |  |  |  | inhibited | not inhibited | wide inhibitory spectrum |
| N#Cc1cc([N+](=O)[O-])ccc1N1C(=O)c2ccccc2S1(=O)=O | 3.04 | 0.607 |  | 45.6 | 60.7 |  | 4.22 |  |  |  |
| O=C(c1cccs1)N1C(=O)c2ccccc2S1(=O)=O [reference compound] | 0.341 |  | 0.0682 |  | 0.682 | 6.17 |  |  |  |  |
| O=C1c2ccccc2S(=O)(=O)N1c1ccc([N+](=O)[O-])cc1 [reference compound] | 164 |  |  |  | 329 | 3.48 | 3.48 |  |  |  |
